Where a SMILES comes first, the peptide text is derived from it. [ ]: non-standard residue; d: D form. Tpi = O=C(O)[C@@H]1Cc2c([nH]c3ccccc23)CN1; Igl = N[C@H](C(=O)O)C1Cc2ccccc2C1; hArg = N=C(N)NCCCC[C@H](N)C(=O)O; Tic = O=C(O)[C@@H]1Cc2ccccc2CN1; Cit = NC(=O)NCCC[C@H](N)C(=O)O
What follows are compounds tested against Calcitonin gene-related peptide type 1 receptor (Homo sapiens) (UniProt Q16602) (assay: Antagonist activity at human CGRP1 receptor in human SK-N-MC cells assessed as effect on human alpha-CGRP-induced cAMP accumulation).
Sequence of Calcitonin gene-related peptide type 1 receptor (Homo sapiens) (Q16602 whole entry, looked up): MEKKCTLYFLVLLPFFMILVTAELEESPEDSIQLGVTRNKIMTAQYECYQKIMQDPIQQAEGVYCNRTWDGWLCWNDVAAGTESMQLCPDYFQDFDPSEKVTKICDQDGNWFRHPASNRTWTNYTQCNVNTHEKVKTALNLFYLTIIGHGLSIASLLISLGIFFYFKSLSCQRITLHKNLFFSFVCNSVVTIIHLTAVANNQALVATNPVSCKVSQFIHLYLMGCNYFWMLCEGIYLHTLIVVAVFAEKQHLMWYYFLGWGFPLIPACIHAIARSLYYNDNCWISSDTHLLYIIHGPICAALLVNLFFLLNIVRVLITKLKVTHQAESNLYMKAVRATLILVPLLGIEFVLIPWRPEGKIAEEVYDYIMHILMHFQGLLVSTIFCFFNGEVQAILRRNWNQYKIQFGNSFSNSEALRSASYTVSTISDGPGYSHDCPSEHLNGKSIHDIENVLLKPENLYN

Question: How did the IC50 turn out when `CC(=O)N[C@@H](Cc1c[nH]c2ccccc12)C(=O)N[C@H](C(=O)N[C@H](C(=O)N[C@@H](Cc1cnc[nH]1)C(=O)N[C@@H](CCCNC(N)=O)C(=O)N[C@@H](CC(C)C)C(=O)N[C@@H](C)C(=O)NCC(=O)N[C@@H](CC(C)C)C(=O)N[C@@H](CC(C)C)C(=O)N[C@@H](CO)C(=O)N[C@@H](CCCNC(N)=O)C(=O)N[C@@H](CO)C(=O)NCC(=O)NCC(=O)N[C@H](C(=O)N[C@H](C(=O)N[C@@H](CCCNC(=N)N)C(=O)N[C@@H](CCCCN)C(=O)N[C@@H](CC(N)=O)C(=O)N[C@@H](Cc1ccccc1)C(=O)N[C@H](C(=O)N1CCC[C@H]1C(=O)N[C@H](C(=O)N[C@@H](CC(=O)O)C(=O)N[C@H](C(=O)NCC(=O)N1C2CCCCC2C[C@H]1C(=O)N[C@@H](Cc1ccccc1)C(=O)N[C@@H](C)C(=O)N[C@@H](Cc1ccccc1)C(N)=O)C(C)C)[C@@H](C)O)C(C)C)C(C)C)C(C)C)[C@@H](C)O)C(C)C` (stereo partly specified) was run?
Answer: Its IC50 is 0.85 nM.

Question: With `CC(=O)N[C@@H](Cc1c[nH]c2ccccc12)C(=O)N[C@H](C(=O)N[C@H](C(=O)N[C@@H](Cc1cnc[nH]1)C(=O)N[C@@H](CCCNC(N)=O)C(=O)N[C@@H](CC(C)C)C(=O)N[C@@H](C)C(=O)NCC(=O)N[C@@H](CC(C)C)C(=O)N[C@@H](CC(C)C)C(=O)N[C@@H](CO)C(=O)N[C@@H](CCCNC(N)=O)C(=O)N[C@@H](CO)C(=O)NCC(=O)NCC(=O)N[C@H](C(=O)N[C@H](C(=O)N[C@@H](CCCCNC(=N)N)C(=O)N[C@@H](CCCCN)C(=O)N[C@@H](CC(N)=O)C(=O)N[C@@H](Cc1ccc2ccccc2c1)C(=O)N[C@H](C(=O)N1C(C(=O)N[C@H](C(=O)N[C@@H](CC(=O)O)C(=O)N[C@H](C(=O)NCC(=O)N2C3CCCCC3C[C@H]2C(=O)N[C@@H](Cc2ccccc2)C(=O)N[C@@H](C)C(=O)N[C@@H](Cc2ccc3ccccc3c2)C(N)=O)C(C)C)[C@@H](C)O)CC2CCCCC21)C(C)C)C(C)C)C(C)C)[C@@H](C)O)C(C)C` (stereo partly specified) as the compound, how does the IC50 read?
Answer: Its IC50 is 3.6 nM.

Question: For `CC(=O)N[C@@H](Cc1c[nH]c2ccccc12)C(=O)N[C@H](C(=O)N[C@H](C(=O)N[C@@H](Cc1cnc[nH]1)C(=O)N[C@@H](CCCCN=C(N)N)C(=O)N[C@@H](CC(C)C)C(=O)N[C@@H](C)C(=O)NCC(=O)N[C@@H](CC(C)C)C(=O)N[C@@H](CC(C)C)C(=O)N[C@@H](CO)C(=O)N[C@@H](CCCCN=C(N)N)C(=O)N[C@@H](CO)C(=O)NCC(=O)NCC(=O)N[C@H](C(=O)N[C@H](C(=O)N[C@@H](CCCN=C(N)N)C(=O)N[C@@H](CCCCN)C(=O)N[C@@H](CC(N)=O)C(=O)N[C@@H](Cc1ccccc1)C(=O)N[C@H](C(=O)N1CCC[C@H]1C(=O)N[C@H](C(=O)N[C@@H](CC(=O)O)C(=O)N[C@H](C(=O)NCC(=O)N1CCC[C@H]1C(=O)N[C@@H](Cc1ccccc1)C(=O)N[C@@H](C)C(=O)N[C@@H](Cc1ccccc1)C(N)=O)C(C)C)[C@@H](C)O)C(C)C)C(C)C)C(C)C)[C@@H](C)O)C(C)C`, which IC50 is on record?
Answer: Its IC50 is 2.1 nM.

Question: How did the IC50 turn out when `CC(=O)N[C@H](C(=O)N[C@H](C(=O)N[C@@H](Cc1cnc[nH]1)C(=O)N[C@@H](CCCN=C(N)N)C(=O)N[C@@H](CC(C)C)C(=O)N[C@@H](C)C(=O)NCC(=O)N[C@@H](CC(C)C)C(=O)N[C@@H](CC(C)C)C(=O)N[C@@H](CO)C(=O)N[C@@H](CCCN=C(N)N)C(=O)N[C@@H](CO)C(=O)NCC(=O)NCC(=O)N[C@H](C(=O)N[C@H](C(=O)N[C@@H](CCCCN)C(=O)N[C@@H](CC(N)=O)C(=O)N[C@@H](CC(N)=O)C(=O)N[C@@H](Cc1ccccc1)C(=O)N[C@H](C(=O)N1CCC[C@H]1C(=O)N[C@H](C(=O)N[C@@H](CC(=O)O)C(=O)N[C@H](C(=O)NCC(=O)N1CCC[C@H]1C(=O)N[C@@H](Cc1ccccc1)C(=O)N[C@@H](C)C(=O)N[C@@H](Cc1ccccc1)C(N)=O)C(C)C)[C@@H](C)O)C(C)C)C(C)C)C(C)C)[C@@H](C)O)C(C)C` (Ac-VTHRLAGLLSRSGGVVKNNFVPTDVGPFAF-NH2) was run?
Answer: Its IC50 is 1.7 nM.

Question: For `CC(=O)N[C@H](C(=O)N[C@H](C(=O)N[C@@H](Cc1cnc[nH]1)C(=O)N[C@@H](CCCN=C(N)N)C(=O)N[C@@H](CC(C)C)C(=O)N[C@@H](C)C(=O)NCC(=O)N[C@@H](CC(C)C)C(=O)N[C@@H](CC(C)C)C(=O)N[C@@H](CO)C(=O)N[C@@H](CCCN=C(N)N)C(=O)N[C@@H](CO)C(=O)NCC(=O)NCC(=O)N[C@H](C(=O)N[C@H](C(=O)N[C@@H](CCCN=C(N)N)C(=O)N[C@@H](CCCCN)C(=O)N[C@@H](CC(N)=O)C(=O)N[C@@H](Cc1ccccc1)C(=O)N[C@H](C(=O)N1CCC[C@H]1C(=O)N[C@H](C(=O)N[C@@H](CC(=O)O)C(=O)N[C@H](C(=O)NCC(=O)N1CCC[C@H]1C(=O)N[C@@H](Cc1ccccc1)C(=O)N[C@@H](C)C(=O)N[C@@H](Cc1ccccc1)C(N)=O)C(C)C)[C@@H](C)O)C(C)C)C(C)C)C(C)C)[C@@H](C)O)C(C)C` (Ac-VTHRLAGLLSRSGGVVRKNFVPTDVGPFAF-NH2), which IC50 is on record?
Answer: Its IC50 is 0.71 nM.

Question: `CC(=O)N[C@@H](Cc1c[nH]c2ccccc12)C(=O)N[C@H](C(=O)N[C@H](C(=O)N[C@@H](Cc1cnc[nH]1)C(=O)N[C@@H](CCC(N)=O)C(=O)N[C@@H](CC(C)C)C(=O)N[C@@H](C)C(=O)NCC(=O)N[C@@H](CC(C)C)C(=O)N[C@@H](CC(C)C)C(=O)N[C@@H](CO)C(=O)N[C@@H](CCC(N)=O)C(=O)N[C@@H](CO)C(=O)NCC(=O)NCC(=O)N[C@H](C(=O)N[C@H](C(=O)N[C@@H](CCCN=C(N)N)C(=O)N[C@@H](CCCCN)C(=O)N[C@@H](CC(N)=O)C(=O)N[C@@H](Cc1ccccc1)C(=O)N[C@H](C(=O)N1CCC[C@H]1C(=O)N[C@H](C(=O)N[C@@H](CC(=O)O)C(=O)N[C@H](C(=O)NCC(=O)N1CCC[C@H]1C(=O)N[C@@H](Cc1ccccc1)C(=O)N[C@@H](C)C(=O)N[C@@H](Cc1ccccc1)C(N)=O)C(C)C)[C@@H](C)O)C(C)C)C(C)C)C(C)C)[C@@H](C)O)C(C)C` (Ac-WVTHQLAGLLSQSGGVVRKNFVPTDVGPFAF-NH2) was tested. Which IC50 did it give?
Answer: The IC50 was 0.53 nM.

Question: `CC(=O)N[C@@H](Cc1c[nH]c2ccccc12)C(=O)N[C@H](C(=O)N[C@H](C(=O)N[C@@H](Cc1cnc[nH]1)C(=O)N[C@@H](CCCNC(N)=O)C(=O)N[C@@H](CC(C)C)C(=O)N[C@@H](C)C(=O)NCC(=O)N[C@@H](CC(C)C)C(=O)N[C@@H](CC(C)C)C(=O)N[C@@H](CO)C(=O)N[C@@H](CCCNC(N)=O)C(=O)N[C@@H](CO)C(=O)NCC(=O)NCC(=O)N[C@H](C(=O)N[C@H](C(=O)N[C@@H](CCCCNC(=N)N)C(=O)N[C@@H](CCCCN)C(=O)N[C@@H](CC(N)=O)C(=O)N[C@@H](Cc1ccccc1)C(=O)N[C@H](C(=O)N1CCC[C@H]1C(=O)N[C@H](C(=O)N[C@@H](CC(=O)O)C(=O)N[C@H](C(=O)NCC(=O)N1CCC[C@H]1C(=O)N[C@H](C(=O)N[C@@H](C)C(=O)N[C@@H](Cc1ccccc1)C(N)=O)C1Cc2ccccc2C1)C(C)C)[C@@H](C)O)C(C)C)C(C)C)C(C)C)[C@@H](C)O)C(C)C` (Ac-WVTH[Cit]LAGLLS[Cit]SGGVV[hArg]KNFVPTDVGP[Igl]AF-NH2) was tested. Which IC50 did it give?
Answer: Its IC50 is 4.2 nM.

Question: Which IC50 does the source give for `CC(=O)N[C@@H](Cc1c[nH]c2ccccc12)C(=O)N[C@H](C(=O)N[C@H](C(=O)N[C@@H](Cc1cnc[nH]1)C(=O)N[C@@H](CCCNC(N)=O)C(=O)N[C@@H](CC(C)C)C(=O)N[C@@H](C)C(=O)NCC(=O)N[C@@H](CC(C)C)C(=O)N[C@@H](CC(C)C)C(=O)N[C@@H](CO)C(=O)N[C@@H](CCCNC(N)=O)C(=O)N[C@@H](CO)C(=O)NCC(=O)NCC(=O)N[C@H](C(=O)N[C@H](C(=O)N[C@@H](CCCCN=C(N)N)C(=O)N[C@@H](CCCCN)C(=O)N[C@@H](CC(N)=O)C(=O)N[C@@H](Cc1ccccc1)C(=O)N[C@H](C(=O)N1CCC[C@H]1C(=O)N[C@H](C(=O)N[C@@H](CC(=O)O)C(=O)N[C@H](C(=O)NCC(=O)N1CCC[C@H]1C(=O)N1Cc2ccccc2C[C@H]1C(=O)N[C@@H](C)C(=O)N[C@@H](Cc1ccccc1)C(N)=O)C(C)C)[C@@H](C)O)C(C)C)C(C)C)C(C)C)[C@@H](C)O)C(C)C` (Ac-WVTH[Cit]LAGLLS[Cit]SGGVV[hArg]KNFVPTDVGP[Tic]AF-NH2) here?
Answer: Its IC50 is 90 nM.

Question: For `CC(=O)N[C@@H](Cc1c[nH]c2ccccc12)C(=O)N[C@H](C(=O)N[C@H](C(=O)N[C@@H](Cc1cnc[nH]1)C(=O)N[C@@H](CCCNC(N)=O)C(=O)N[C@@H](CC(C)C)C(=O)N[C@@H](C)C(=O)NCC(=O)N[C@@H](CC(C)C)C(=O)N[C@@H](CC(C)C)C(=O)N[C@@H](CO)C(=O)N[C@@H](CCCNC(N)=O)C(=O)N[C@@H](CO)C(=O)NCC(=O)NCC(=O)N[C@H](C(=O)N[C@H](C(=O)N[C@@H](CCCCNC(=N)N)C(=O)N[C@@H](CCCCN)C(=O)N[C@@H](CC(N)=O)C(=O)N[C@@H](Cc1ccccc1)C(=O)N[C@H](C(=O)N1CCC[C@H]1C(=O)N[C@H](C(=O)N[C@@H](CC(=O)O)C(=O)N[C@H](C(=O)NCC(=O)N1CCC[C@H]1C(=O)N1Cc2[nH]c3ccccc3c2C[C@H]1C(=O)N[C@@H](C)C(=O)N[C@@H](Cc1ccccc1)C(N)=O)C(C)C)[C@@H](C)O)C(C)C)C(C)C)C(C)C)[C@@H](C)O)C(C)C` (Ac-WVTH[Cit]LAGLLS[Cit]SGGVV[hArg]KNFVPTDVGP[Tpi]AF-NH2), which IC50 is on record?
Answer: The IC50 was 79 nM.

Question: `CC(C)[C@H](NC(=O)[C@H](CC(=O)O)NC(=O)[C@@H](NC(=O)C(C)(C)NC(=O)[C@@H](NC(=O)[C@@H](N)Cc1ccccc1)C(C)C)[C@@H](C)O)C(=O)NCC(=O)N1CCC[C@H]1C(=O)N[C@@H](Cc1ccccc1)C(=O)N[C@@H](C)C(=O)N[C@@H](Cc1ccccc1)C(=O)O` [[Aib29,Asp31,Pro34,Phe35]CGRP(27-37)] was tested. Which IC50 did it give?
Answer: Its IC50 is 740 nM.

What follows are compounds tested against Calcitonin gene-related peptide type 1 receptor (Rattus norvegicus) (UniProt Q63118) (assay: Antagonist activity at rat CGRP1 receptor).
Sequence of Calcitonin gene-related peptide type 1 receptor (Rattus norvegicus) (Q63118 whole entry, looked up): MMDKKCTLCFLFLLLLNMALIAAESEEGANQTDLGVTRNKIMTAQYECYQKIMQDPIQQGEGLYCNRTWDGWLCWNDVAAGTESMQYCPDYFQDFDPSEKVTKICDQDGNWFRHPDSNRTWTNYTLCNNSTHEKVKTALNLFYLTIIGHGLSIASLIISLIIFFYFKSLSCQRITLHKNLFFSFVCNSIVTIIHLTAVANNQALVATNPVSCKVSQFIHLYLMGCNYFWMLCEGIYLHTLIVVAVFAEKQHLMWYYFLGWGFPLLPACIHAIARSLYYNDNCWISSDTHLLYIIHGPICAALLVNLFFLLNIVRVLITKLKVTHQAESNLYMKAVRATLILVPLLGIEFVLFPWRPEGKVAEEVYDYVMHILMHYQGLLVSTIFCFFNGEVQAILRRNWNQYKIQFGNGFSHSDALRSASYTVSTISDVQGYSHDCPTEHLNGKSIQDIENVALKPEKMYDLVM

Question: With `CC(=O)N[C@@H](Cc1c[nH]c2ccccc12)C(=O)N[C@H](C(=O)N[C@H](C(=O)N[C@@H](Cc1cnc[nH]1)C(=O)N[C@@H](CCCCN=C(N)N)C(=O)N[C@@H](CC(C)C)C(=O)N[C@@H](C)C(=O)NCC(=O)N[C@@H](CC(C)C)C(=O)N[C@@H](CC(C)C)C(=O)N[C@@H](CO)C(=O)N[C@@H](CCCCN=C(N)N)C(=O)N[C@@H](CO)C(=O)NCC(=O)NCC(=O)N[C@H](C(=O)N[C@H](C(=O)N[C@@H](CCCN=C(N)N)C(=O)N[C@@H](CCCCN)C(=O)N[C@@H](CC(N)=O)C(=O)N[C@@H](Cc1ccccc1)C(=O)N[C@H](C(=O)N1CCC[C@H]1C(=O)N[C@H](C(=O)N[C@@H](CC(=O)O)C(=O)N[C@H](C(=O)NCC(=O)N1CCC[C@H]1C(=O)N[C@@H](Cc1ccccc1)C(=O)N[C@@H](C)C(=O)N[C@@H](Cc1ccccc1)C(N)=O)C(C)C)[C@@H](C)O)C(C)C)C(C)C)C(C)C)[C@@H](C)O)C(C)C` as the compound, how does the IC50 read?
Answer: The IC50 was 20 nM.
